Laboratory results reported in patent publication US10377998B2, “CRISPR-CAS systems and methods for altering expression of gene products, structural information and inducible modular CAS enzymes” (The Broad Institute, Inc., priority 2013, dated 2019).

Assays:
Factor VII = conditions: LNP siRNA systems containing these lipids, hepatocytes in vivo; cited from earlier work
[1] = Double nicking indel formation with sgRNA pairs; type: cell-based; conditions: substitution of Cas9n in double nicking, eukaryotic system
Text: Aspects of the invention relate to the expression of the gene product being decreased or a template polynucleotide being further introduced into the DNA molecule encoding the gene product or an intervening sequence being excised precisely by allowing the two 5′ overhangs to reanneal and ligate or the activity or function of the gene product being altered or the expression of the gene product being increased. In an embodiment of the invention, the gene product is a protein. Only sgRNA pairs creating 5′ overhangs with less than 8 bp overlap between the guide sequences (offset greater than −8 bp) were able to mediate detectable indel formation. […] Nonetheless, a pair of sgRNAs that will generate a 5′ overhang with Cas9n should in principle generate the corresponding 3′ overhang instead, and double nicking. […] Accordingly, in some embodiments, a recombination template is also provided. A recombination template may be a component of another vector as described herein, contained in a separate vector, or provided as a separate polynucleotide. In some embodiments, a recombination template is designed to serve as a template in homologous recombination, such as within or near a target sequence nicked or cleaved by a CRISPR enzyme as a part of a CRISPR complex. […]

Molecule	gene silencing potency series (Factor VII)	indel formation with sgRNA pair [1]
1,2-dilinoleyloxy-keto-N,N-dimethyl-3-aminopropane [DLinKDMA]	DLinKC2-DMA>DLinKDMA>DLinDMA>>DLinDAP	
CCCCC/C=C\C/C=C\CCCCCCCC(=O)OCC(CN(C)C)OC(=O)CCCCCCC/C=C\C/C=C\CCCCC (centres unmarked) [DLinDAP, 1,2-dilineoyl-3-dimethylammonium-propane]	DLinKC2-DMA>DLinKDMA>DLinDMA>>DLinDAP	
CCCCC/C=C\C/C=C\CCCCCCCCOCC(CN(C)C)OCCCCCCCC/C=C\C/C=C\CCCCC (centres unmarked) [DLinDMA, 1,2-dilinoleyloxy-3-N,N-dimethylaminopropane]	DLinKC2-DMA>DLinKDMA>DLinDMA>>DLinDAP	
CCCCC/C=C\C/C=C\CCCCCCCCC1(CCCCCCCC/C=C\C/C=C\CCCCC)OCC(CCN(C)C)O1 (centres unmarked) [DLinKC2-DMA, 1,2-dilinoleyl-4-(2-dimethylaminoethyl)-[1,3]-dioxolane]	DLinKC2-DMA>DLinKDMA>DLinDMA>>DLinDAP	
Cas9H840A: Cas9 with H840A mutation		no indel formation is observed
